The supplement of paper PMC10307832

Legend:
Test in all cases: relative viability (nuclei count vs DMSO), 5 days (fraction); higher = more cells survive
[1] = compound: CCN(CCO)CCCC(C)Nc1ccnc2cc(Cl)ccc12 [Hydroxychloroquine] + CC(=O)Nc1cccc(-n2c(=O)n(C3CC3)c(=O)c3c(Nc4ccc(I)cc4F)n(C)c(=O)c(C)c32)c1 [Trametinib] (partner 0.02 µM)
Summary of the method: (§1)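 Lung cancer cell lines in 1536-well plates got either a single drug or a fixed anchor-drug dose together with five library-drug doses (not always all listed) in √10 steps, by pin tool, on the day after seeding. Nuclei were counted after 5 days, and relative viability is the treated-to-vehicle ratio of nuclei counts. Values are medians of duplicate plates.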

[2] = compound: CCN(CCO)CCCC(C)Nc1ccnc2cc(Cl)ccc12 [Hydroxychloroquine] + CC(C)C[C@H](NC(=O)[C@H](Cc1ccccc1)NC(=O)c1cnccn1)B(O)O [Bortezomib] (partner 0.002 µM)
Summary of the method: as §1

[3] = compound: CCN(CCO)CCCC(C)Nc1ccnc2cc(Cl)ccc12 [Hydroxychloroquine] + CS(=O)(=O)N1CCN(Cc2cc3nc(-c4cccc5[nH]ncc45)nc(N4CCOCC4)c3s2)CC1 [Pictilisib] (partner 1 µM)
Summary of the method: as §1

[4] = compound: CCN(CCO)CCCC(C)Nc1ccnc2cc(Cl)ccc12 [Hydroxychloroquine] + O=C(c1cc(Cc2n[nH]c(=O)c3ccccc23)ccc1F)N1CCN(C(=O)C2CC2)CC1 [Olaparib] (partner 8 µM)
Summary of the method: as §1

Cell Line | relative viability ([1]; first compound 0.5 µM) | relative viability ([1]; first compound 1.581 µM) | relative viability ([1]; first compound 5 µM) | relative viability ([1]; first compound 15.81 µM) | relative viability ([1]; first compound 50 µM) | relative viability ([2]; first compound 0.5 µM) | relative viability ([2]; first compound 1.581 µM) | relative viability ([2]; first compound 5 µM) | relative viability ([2]; first compound 15.81 µM) | relative viability ([2]; first compound 50 µM) | relative viability ([3]; first compound 0.5 µM) | relative viability ([3]; first compound 1.581 µM) | relative viability ([3]; first compound 5 µM) | relative viability ([3]; first compound 15.81 µM) | relative viability ([3]; first compound 50 µM) | relative viability ([4]; first compound 0.5 µM) | relative viability ([4]; first compound 1.581 µM) | relative viability ([4]; first compound 5 µM) | relative viability ([4]; first compound 15.81 µM) | relative viability ([4]; first compound 50 µM)
LCLC-103H | 0.684 | 0.642 | 0.678 | 0.719 | 0.695 | 1.13 | 0.837 | 1.04 | 1.15 | 1.06 | 0.666 | 0.612 | 0.567 | 0.542 | 0.67 | 0.754 | 0.688 | 0.84 | 0.766 | 0.78
LOU-NH91 | 0.795 | 0.69 | 0.799 | 0.828 | 0.848 | 0.467 | 0.507 | 0.492 | 0.475 | 0.539 | 0.531 | 0.488 | 0.567 | 0.509 | 0.488 | 0.945 | 0.846 | 0.888 | 0.869 | 0.961
LU99A | 0.626 | 0.505 | 0.542 | 0.527 | 0.577 | 1.11 | 1.02 | 1.11 | 1.08 | 1.26 | 0.367 | 0.288 | 0.337 | 0.28 | 0.362 | 0.261 | 0.265 | 0.228 | 0.299 | 0.254
LXF-289 | 0.659 | 0.689 | 0.674 | 0.72 | 0.759 | 1.02 | 1.01 | 0.939 | 1.01 | 1 | 0.765 | 0.819 | 0.797 | 0.736 | 0.769 | 1.07 | 1.06 | 1.07 | 1.15 | 1.16
NCI-H23 | 0.387 | 0.387 | 0.364 | 0.36 | 0.327 | 1.15 | 1.14 | 0.884 | 1.02 | 0.881 | 0.552 | 0.409 | 0.384 | 0.385 | 0.449 | 0.365 | 0.36 | 0.322 | 0.309 | 0.204
NCI-H322M | 0.497 | 0.6 | 0.511 | 0.511 | 0.537 | 1.31 | 1.27 | 1.16 | 1.36 | 1.2 | 0.533 | 0.438 | 0.475 | 0.515 | 0.524 | 0.741 | 0.75 | 0.753 | 0.725 | 0.751
NCI-H441 | 0.467 | 0.39 | 0.386 | 0.349 | 0.462 |  | 0.426 | 0.453 | 0.552 | 0.77 | 0.488 | 0.532 | 0.535 | 0.38 | 0.428 | 0.543 | 0.551 | 0.498 | 0.547 | 0.553
NCI-H460 | 0.203 | 0.11 | 0.119 | 0.187 | 0.13 | 1.08 | 1.05 | 1.1 | 1.39 | 1.36 | 0.37 | 0.266 | 0.366 | 0.406 | 0.352 | 0.409 | 0.431 | 0.387 | 0.479 | 0.334
NCI-H520 | 0.692 | 0.658 | 0.589 | 0.628 | 0.844 | 0.639 | 0.606 | 0.662 | 0.658 | 0.511 | 0.338 | 0.255 | 0.29 | 0.354 | 0.387 | 0.344 | 0.354 | 0.304 | 0.337 | 0.364
NCI-H596 | 0.652 | 0.926 | 0.769 | 0.797 | 0.795 | 1.04 | 0.857 | 0.847 | 0.999 | 1.19 | 0.386 | 0.406 | 0.32 | 0.367 | 0.399 | 0.668 | 0.711 | 0.77 | 0.716 | 0.604
NCI-H647 | 0.474 | 0.494 | 0.438 | 0.497 | 0.519 | 1.07 | 1.19 | 0.876 | 1.15 | 0.813 | 0.514 | 0.323 | 0.335 | 0.357 | 0.476 | 0.521 | 0.531 | 0.591 | 0.626 | 0.602
NCI-H650 | 0.877 | 0.876 | 0.965 | 1.03 | 0.969 | 0.911 | 0.759 |  | 0.901 | 0.748 | 0.867 | 0.758 |  | 1.01 | 0.827 | 0.423 | 0.364 | 0.326 | 0.374 | 0.315
NCI-H661 | 0.549 | 0.522 | 0.593 | 0.596 | 0.577 | 0.795 | 0.719 | 0.652 | 0.761 | 0.825 | 0.472 | 0.413 | 0.406 | 0.384 | 0.358 | 0.782 | 0.695 | 0.743 | 0.684 | 0.69
NCI-H727 | 0.369 | 0.361 | 0.396 | 0.405 | 0.382 | 0.975 | 0.749 | 0.89 | 0.823 | 0.885 | 0.389 | 0.339 | 0.444 | 0.325 | 0.371 | 0.738 | 0.673 | 0.653 | 0.73 | 0.629
NCI-H838 | 0.566 | 0.458 | 0.552 | 0.519 | 0.606 | 0.9 | 0.819 | 0.663 | 0.79 | 0.805 | 0.509 | 0.465 | 0.398 | 0.465 | 0.53 | 0.783 | 0.801 | 0.804 | 0.803 | 0.809
